Reference: patent EP3173083A1, “IN VIVO ANTIANGIOGENIC EFFECT OF A PALLADIUM COMPLEX” (Istanbul Universitesi Rektorlugu, priority 2015, dated 2017)

Test system: CAM
Assay: chorioallantoic membrane (CAM) model of antiangiogenic effect
Format: in vivo, chicken
Conditions: for Score: average antiangiogenic score on CAM, evaluated by stereomicroscope 24 hours after pellet application; for antiangiogenic effect on CAM: effect class by scoring system of Table 1, 50 µg/pellet
Description: In a study performed on the antiangiogenic effect of palladium complex of the invention, a method which is named chorioallantoic membrane (CAM) model is used. The model in question is a method developed by the embryologists more than 50 years ago, has a broad area of usage in embryonic researches (Auerbach, R., Lewis, R., Shinners, B., Kubai, L., Akhtar, N., 2003. Angiogenesis assays: a critical overview. Clin. Chem., 49(1): 32-40). Since 1956, the model is used in cancer and metastasis researches. The model has been started to be used in angiogenesis studies by Folkman in 1976. CAM is a non-embryo membrane which is formed by the merger of chorion and allantois as a result of an incubation of four-days. Although it is widely used in embryonic researches, it also has a broad range of usage in cancer and metastasis researches (Ribatti, D., 2010. The inefficacy of antiangiogenic therapies. J. Angiogenes. Res., 2:27. doi: 10.1186/2040-2384-2-27). […] The method is one of the most commonly used methods since it is quick, cheap and semi quantitative and enable scanning of many new agents (Cimpean, A.M., Ribatti, D., Raica, M., 2008. The chick embryo chorioallantoic membrane as a model to study tumor metastasis. Angiogenesis, 11(4): 311-319; Ribatti, D., 2008. Chick embryo chorioallantoic membrane as a useful tool to study angiogenesis. Int. Rev. Cell Mol. Biol., 270: 181-224).
The experiment Protocol which was reported in 1967 by D'Arcy and Howard and in 2002 by Bürgermeister and his colleagues was used (D'Arcy, P.F., Howard, E.M.,1967. A new anti-inflammatory test, utilizing the chorio-allantoic membrane of the chick embryo. Br. J. Pharmacol. Chemother., 29(3): 378-38; Bürgermeister, J., Paper, D.H., Vogl, H., Linhardt, R.J., Franz, G., 2002. LaPSvS1, a (1-->3)-beta-galactan sulfate and its effect on angiogenesis in vivo and in vitro. Carbohydr. Res., 337(16): 1459-1466).
The palladium complex, 5 mg/ml (50 µg /pellet), the standard control agents sodium dodecyl sulfate (SDS), cortisone, prednisone, (±)-thalidomide has been suspended in 2,5 % (w/v) agar at a final concentration of 50 µg /pellet by heating (60 °C<). Then, 10 µl is taken from this suspension and provided to become frozen pellet at room temperature by being applied on stainless steel cylinder supports with a diameter 5 mm. Pellets are applied onto the surface of CAM.
The procedure for CAM experiment is given in Figure 1 (Kiyan, H.T., 2010. Baz ? Hypericum Türlerinin Uçucu Yaǧ Bile ? imleri ve Antianjiyojenik Aktiviteleri, Yüksek Lisans Tezi, Anadolu Üniversitesi, Saǧl ? k Bilimleri Enstitüsü, Farmakognozi Program ? , 19p). Accordingly, fertilized chicken eggs to be used in experiment are incubated at 36,5 °C and in an incubator with 80% relative humidity (climatization cabin) at horizontal position for 72 hours before the experiment. In this period, eggs were carefully upturned time to time. At the end of the incubation period, firstly, from the bottom side of eggs with the help of the sterile injectors, 10-15 ml of albumin (egg white) is slowly removed and then from the top side of eggs (more upright and sharp part), shell and membrane are carefully removed with the help of the forceps (Figure-1, A). Living and developing embryo CAM immediately taken under protection with a stretch film, is waited again at 36,5 °C and in an incubator with 80% relative humidity for another 72 hours (Figure-1, B). When diameter of the CAM is detected to be approximately 2 cm, one piece of freshly prepared sample pellet for each egg is placed into the capillaries on the CAM (Figure-1, C). 15 pellets from each material is applied on CAM of an equal number of eggs and covered with stretch film. Before the evaluations, eggs were incubated for another 24 hours in such a way that pellets are placed in under specified conditions. […]

SMILES: C[C@]12CCC(=O)C=C1CC[C@@H]1[C@@H]2C(=O)C[C@@]2(C)[C@H]1CC[C@]2(O)C(=O)CO [Cortisone]
- Score (50 µg/pellet): 1.2 ± 0.2
- antiangiogenic effect on CAM: very strong

SMILES: C[C@]12C=CC(=O)C=C1CC[C@@H]1[C@@H]2C(=O)C[C@@]2(C)[C@H]1CC[C@]2(O)C(=O)CO [Prednisone]
- Score (50 µg/pellet): 0.9 ± 0.7
- antiangiogenic effect on CAM: strong

SMILES: O=C1c2ccccc2S(=O)(=O)[N]1[Pd-2]12[n+]3ccccc3-c3cccc([n+]31)-c1cccc[n+]12 [Palladium complex, [Pd(sac)(terpy)] (sac)•4H2O (sac=saccharinate and terpy=2,2':6',2"-terpyridine)]]
- toxic or irritant effect on CAM (50 µg/pellet): no toxic or irritant effect
- antiangiogenic effect on CAM: very strong

SMILES: O=C1CCC(N2C(=O)c3ccccc3C2=O)C(=O)N1 (racemic) [(±)-Thalidomide]
- Score (50 µg/pellet): 0.9 ± 0.2
- antiangiogenic effect on CAM: strong

SMILES: CCCCCCCCCCCCOS(=O)(=O)[O-].[Na+] [Sodium dodecyl sulphate (SDS), Sodium dodecyl sulphate]
- toxic or irritant effect on CAM (50 µg/pellet): irritant effect
- Irritation (%) (CAM, 50 µg/pellet, 24 hours after pellet application): 87 ± 5%
- Score (50 µg/pellet): 0.1 ± 0.1
